The text below walks through data of ChEMBL document CHEMBL5614367, “Hydroxamic acid hybrids: Histone deacetylase inhibitors with anticancer therapeutic potency” (Eur J Med Chem, 2023).

The target in series [1] is T1, Histone deacetylase 1 (Homo sapiens, UniProt Q13547). Nature of the series: Inhibition of HDAC1 (unknown origin).
In series [2] the test system is HCT-116. In words: cells. The note with it: Homo sapiens.
Description: Antiproliferative activity against human HCT-116 cells
Series [3] has as its target Serine/threonine-protein kinase B-raf (Homo sapiens, UniProt P15056). Nature of the series: Inhibition of wild type BRAF (unknown origin).
Series [4] addresses T2, Protein deacetylase HDAC6 (Homo sapiens, UniProt Q9UBN7).
T2 sequence (Q9UBN7 whole entry): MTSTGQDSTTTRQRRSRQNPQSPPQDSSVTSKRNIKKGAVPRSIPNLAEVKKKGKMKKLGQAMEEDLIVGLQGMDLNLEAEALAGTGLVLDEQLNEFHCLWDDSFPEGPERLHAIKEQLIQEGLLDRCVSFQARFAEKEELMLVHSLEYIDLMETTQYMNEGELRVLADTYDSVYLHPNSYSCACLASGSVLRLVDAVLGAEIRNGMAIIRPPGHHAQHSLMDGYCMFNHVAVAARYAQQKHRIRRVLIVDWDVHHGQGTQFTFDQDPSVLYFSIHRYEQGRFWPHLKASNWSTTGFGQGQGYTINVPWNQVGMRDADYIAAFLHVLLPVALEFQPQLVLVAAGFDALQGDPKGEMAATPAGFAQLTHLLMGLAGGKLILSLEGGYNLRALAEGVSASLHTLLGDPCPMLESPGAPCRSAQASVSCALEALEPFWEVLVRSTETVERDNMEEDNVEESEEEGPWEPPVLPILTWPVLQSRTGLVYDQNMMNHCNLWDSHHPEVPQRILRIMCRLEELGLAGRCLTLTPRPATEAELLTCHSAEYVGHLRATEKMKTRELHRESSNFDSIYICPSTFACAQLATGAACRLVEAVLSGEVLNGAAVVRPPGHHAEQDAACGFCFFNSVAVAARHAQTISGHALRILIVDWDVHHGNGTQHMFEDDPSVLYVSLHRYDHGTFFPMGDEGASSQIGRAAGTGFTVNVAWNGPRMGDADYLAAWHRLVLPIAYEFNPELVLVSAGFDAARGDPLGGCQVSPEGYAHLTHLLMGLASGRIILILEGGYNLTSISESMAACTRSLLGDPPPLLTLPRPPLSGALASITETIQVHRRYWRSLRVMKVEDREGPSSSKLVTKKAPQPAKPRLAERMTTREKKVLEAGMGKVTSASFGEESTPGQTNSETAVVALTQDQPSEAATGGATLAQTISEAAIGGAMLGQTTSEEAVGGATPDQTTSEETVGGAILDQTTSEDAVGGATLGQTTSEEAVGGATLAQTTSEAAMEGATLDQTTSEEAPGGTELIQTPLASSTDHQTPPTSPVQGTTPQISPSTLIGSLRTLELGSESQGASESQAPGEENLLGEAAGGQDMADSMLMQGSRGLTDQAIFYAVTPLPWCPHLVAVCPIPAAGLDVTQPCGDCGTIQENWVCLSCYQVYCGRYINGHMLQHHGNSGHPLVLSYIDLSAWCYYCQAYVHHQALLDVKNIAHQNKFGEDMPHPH
In words: Inhibition of HDAC6 (unknown origin).

A further series concerns SGC-7901. Nature of the series: Antiproliferative activity against human SGC-7901 cells. Type of series: functional, cell-based.
Series [5] concerns MCF7. Nature of the series: cells. The note with it: Homo sapiens.
Series [6] deals with A549. Nature of the series: Antiproliferative activity against human A549 cells.
In series [7] the test system is HL-60. Nature of the series: Antiproliferative activity against human HL-60 cells. Type of series: functional, cell-based.
The test system of a further series is A-375. In words: Antiproliferative activity against human A-375 cells. It counts as functional, cell-based.
In the next series the test system is MDA-MB-231. Nature of the series: Antiproliferative activity against human MDA-MB-231 cells.
Series [8] addresses T2, Protein deacetylase HDAC6. In words: Inhibition of HDAC6 (unknown origin) incubated for 30 mins in presence of fluorimetric assay.
Another series concerns NCI-H23. Nature of the series: Antiproliferative activity against human NCI-H23 cells incubated for 48 hrs by colorimetric method. To be noted: NCI-H23, 48 h. Type of series: functional, cell-based.
In a further series the test system is PC-3. Nature of the series: Antiproliferative activity against human PC-3 cells incubated for 48 hrs by colorimetric method. It counts as functional, cell-based. The note with it: PC-3, 48 h.
A further series relates to SW-620. In words: Antiproliferative activity against human SW620 cells incubated for 48 hrs by colorimetric method. Type of series: functional, cell-based. The note with it: SW-620, 48 h.
For series [9], the system named is HCT-116. Nature of the series: cells. Type of series: functional, cell-based. To be noted: Homo sapiens, HCT-116, 72 h.
The subject of a further series is HepG2. In words: cells. Type of series: functional, cell-based. The note with it: Homo sapiens, HepG2, 72 h.
Another series concerns 518A2. In words: cells. It counts as functional, cell-based. To be noted: Homo sapiens, 518A2, 72 h.
In a further series the test system is HCT 116 TP53(-/-). In words: cells. Type of series: functional, cell-based. To be noted: Homo sapiens, 72 h.
Another series relates to Huh-7. Nature of the series: cells. Type of series: functional, cell-based. To be noted: Homo sapiens, Huh-7, 72 h.
Series [10] relates to HL-60. Nature of the series: Cytotoxicity against human HL-60 cells assessed as reduction in cell viability incubated for 72 hrs by Cell-titer Glo based analysis. It counts as functional. The note with it: HL-60, 72 h.
The subject of series [11] is Plasmodium falciparum. In words: Antiplasmodial activity against Plasmodium falciparum 3D7 assessed as reduction in parasite growth incubated for 3 days by ELISA analysis. It counts as functional, organism-based. To be noted: 3D7, 72 h.
The subject of series [12] is HL-60. Nature of the series: Cytotoxicity against human HL-60 cells assessed as reduction in cell viability incubated for 72 hr by MTT assay. It counts as functional, cell-based. To be noted: HL-60, 72 h.
The test system of the next series is MOLM-13. Nature of the series: Antiproliferative activity against human MOLM-13 cells assessed as reduction in cell viability incubated for 72 hrs by MTT assay. It counts as functional, cell-based. To be noted: MOLM-13, 72 h.
Series [13] relates to Plasmodium falciparum. In words: Antiplasmodial activity against Plasmodium falciparum Dd2 assessed as reduction in parasite growth incubated for 3 days by ELISA analysis. It counts as functional, organism-based. The note with it: Dd2, 72 h.
For series [14], the system named is Plasmodium falciparum. In words: Antiplasmodial activity against artemisinin-resistant Plasmodium falciparum Dd2 R539T assessed as reduction in parasite growth incubated for 3 days by ELISA analysis. It counts as functional, organism-based. To be noted: 72 h.
Series [15] has as its system K562. In words: Cytotoxicity against human K562 cells assessed as reduction in cell viability incubated for 72 hrs by Cell-titer Glo based analysis. Type of series: functional. The note with it: K562, 72 h.
Series [16] deals with T2, Protein deacetylase HDAC6. Nature of the series: Inhibition of human recombinant HDAC6 using ZMAL (Z-Lys(Ac)-AMC as fluorogenic substrate pre-incubated for 30 mins followed by substrate addition and measured for 1 hr by Fluorescence based analysis.
For another series, the system named is HPBALL. Nature of the series: Cytotoxicity against human HPBALL cells assessed as reduction in cell viability incubated for 72 hrs by MTT assay. Type of series: functional, cell-based.
A further series concerns NALM-6. Nature of the series: Cytotoxicity against human NALM-6 cells assessed as reduction in cell viability incubated for 72 hrs by MTT assay. To be noted: NALM-6, 72 h. It counts as functional, cell-based.
The nature of series [17]: Cytotoxicity against human BEAS-2B cells. It counts as toxicity, cell-based.
A short description of series [18]: Cytotoxicity against human L02 cells. It counts as toxicity, cell-based.
For series [19], the target named is T1, Histone deacetylase 1. Nature of the series: Inhibition of HDAC1 in human HeLa cells incubated for 72 hrs by ELISA. It counts as cell-based.
The test system of series [20] is MCF7. Nature of the series: Antiproliferative activity against human MCF7 cells assessed as cell growth inhibition by SRB assay. Type of series: functional.
For series [21], the target named is T2, Protein deacetylase HDAC6. Nature of the series: Inhibition of HDAC6 in human HeLa cells incubated for 72 hrs by ELISA. Type of series: cell-based.
Series [22] deals with K562. Nature of the series: Antiproliferative activity against human K562 cells assessed as cell growth inhibition by SRB assay. It counts as functional.
Series [23] relates to A549. Nature of the series: Antiproliferative activity against human A549 cells assessed as cell growth inhibition by SRB assay. It counts as functional.
For a further series, the system named is HeLa. Nature of the series: Antiproliferative activity against human HeLa cells assessed as cell growth inhibition by SRB assay. Type of series: functional.

Some results are limits rather than exact numbers.

T1 sequence (Q13547 whole entry): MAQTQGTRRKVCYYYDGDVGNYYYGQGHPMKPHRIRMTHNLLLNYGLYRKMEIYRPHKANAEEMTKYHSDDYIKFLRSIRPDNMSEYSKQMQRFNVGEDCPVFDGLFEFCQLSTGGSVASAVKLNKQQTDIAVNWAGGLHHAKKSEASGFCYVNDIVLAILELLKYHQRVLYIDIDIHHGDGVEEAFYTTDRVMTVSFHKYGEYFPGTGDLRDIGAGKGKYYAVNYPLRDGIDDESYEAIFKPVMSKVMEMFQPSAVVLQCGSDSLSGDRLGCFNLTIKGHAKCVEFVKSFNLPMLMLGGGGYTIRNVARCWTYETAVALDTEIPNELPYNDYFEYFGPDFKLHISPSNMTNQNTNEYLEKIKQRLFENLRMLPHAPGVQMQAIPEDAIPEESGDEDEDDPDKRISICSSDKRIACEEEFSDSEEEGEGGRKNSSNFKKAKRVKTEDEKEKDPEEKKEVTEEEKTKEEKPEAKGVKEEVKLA
Sequence of Serine/threonine-protein kinase B-raf (P15056 whole entry): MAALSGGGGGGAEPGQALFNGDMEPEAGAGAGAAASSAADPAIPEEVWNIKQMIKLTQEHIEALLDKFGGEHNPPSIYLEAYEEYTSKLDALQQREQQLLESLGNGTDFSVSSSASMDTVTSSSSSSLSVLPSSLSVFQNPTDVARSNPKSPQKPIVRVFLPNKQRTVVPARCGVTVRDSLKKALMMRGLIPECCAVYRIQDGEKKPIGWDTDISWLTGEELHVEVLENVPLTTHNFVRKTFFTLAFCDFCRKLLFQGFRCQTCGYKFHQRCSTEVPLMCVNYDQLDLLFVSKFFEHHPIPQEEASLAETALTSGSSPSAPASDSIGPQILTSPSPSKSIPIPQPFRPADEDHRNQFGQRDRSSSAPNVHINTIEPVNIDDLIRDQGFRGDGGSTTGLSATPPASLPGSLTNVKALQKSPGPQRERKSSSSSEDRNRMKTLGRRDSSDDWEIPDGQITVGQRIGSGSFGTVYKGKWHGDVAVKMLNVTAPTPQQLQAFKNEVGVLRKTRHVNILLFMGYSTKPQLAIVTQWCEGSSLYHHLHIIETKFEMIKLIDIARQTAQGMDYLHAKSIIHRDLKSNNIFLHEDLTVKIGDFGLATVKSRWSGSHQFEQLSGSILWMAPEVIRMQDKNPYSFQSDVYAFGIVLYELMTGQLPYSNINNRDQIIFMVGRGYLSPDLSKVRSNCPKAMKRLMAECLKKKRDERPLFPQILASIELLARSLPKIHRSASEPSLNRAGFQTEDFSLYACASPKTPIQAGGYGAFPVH

As for `CC(C)(C)c1nc(-c2cccc(NS(=O)(=O)c3c(F)cccc3F)c2F)c(-c2ccnc(NCCCCCCC(=O)NO)n2)s1`, the IC50 against Histone deacetylase 1 [1] is 15.6 nM; in the series with HCT-116 [2], 310 nM; in [3], 1.71 nM; in [4], 15.6 nM.
In the case of `O=C(Cc1ccc(C(=O)NO)cc1)Nc1ccc2ncnc(Nc3ccc(I)cc3)c2c1`, the half-maximal inhibitory concentration (IC50) with SGC-7901, with MCF7 [5], in the series with HCT-116 [2], with A549 [6], with HL-60 [7] and in the series with A-375 was 2200 nM each time. Moreover, the IC50 in the series on MDA-MB-231 came to 2200 nM; in [4] it was 16300 nM.
Turning to `Cc1ccc(Cn2cnc3cc(/C=C/C(=O)NO)ccc3c2=O)cc1`, the IC50 amounted to 33 nM in series [8], 670 nM in the series on NCI-H23, 670 nM with PC-3 and 670 nM with SW-620.
Regarding `O=C(/C=C/c1ccc2c(=O)n(Cc3ccc(Cl)cc3)cnc2c1)NO`, the IC50 in [8] is 47 nM; in the series on NCI-H23, 670 nM; in the series on PC-3, 670 nM; with SW-620, 670 nM.
Turning to `COc1ccc(-c2ocnc2-c2cc(OC)c(OC)c(OC)c2)cc1OCCCCCC(=O)NO`, the half-inhibitory concentration (IC50) was 610 nM with HCT-116 [9]; 610 nM in the series with HepG2; 610 nM in the series on 518A2; 610 nM with HCT 116 TP53(-/-); around 1000 nM in [4]; 610 nM with Huh-7.
Regarding `C[C@@H]1CC[C@H]2[C@@H](C)C(OCC(=O)NO)C[C@@H]3O[C@]4(C)CC[C@@H]1[C@]32OO4` (some centres undefined), the IC50 in the series on HL-60 [10] was determined as 690 nM; in the series on Plasmodium falciparum [11], 1.9 nM; in the series with HL-60 [12] it was 690 nM; in the series on MOLM-13, 690 nM; in the series on Plasmodium falciparum [13] it was 1.9 nM; with Plasmodium falciparum [14] it was 1.9 nM. The IC50 with K562 [15] was 690 nM; in series [16], 187 nM; with HPBALL it was 150 nM; in the series with NALM-6 it was 150 nM.
In the case of `CCCOc1ccc2c(OCCCCCCCC(=O)NO)cc(=O)oc2c1`, the IC50 in series [17] and in [18] was above 50000 nM in each case.
Turning to `CC(=O)c1c(-c2ccc([N+](=O)[O-])cc2)cn(CCCCCC(=O)NO)c1C`, the IC50 (on Histone deacetylase 1 [19]; in series [21]) was 52 nM each time. The GI50 with MCF7 [20], in the series with K562 [22], in the series on A549 [23] and in the series with HeLa was below 10000 nM each time.
